Test results taken from patent US20260317356A1, “SMALL MOLECULE MODULATORS OF OGG1” (AZKARRA THERAPEUTICS, INC., priority 2023, published 2026).

What was measured:
[1] = molecular target: T1, nLucOGG1 in HeLa cells (Homo sapiens, UniProt O15527); experiment: Cellular Thermal Shift Assay to measure compound affinity for nLucOGG1 in HeLa cells (CETSA DTm); assay type: cell-based; details: 10 μM compound, 37° C. 60 min, Tm vs DMSO control
T1 construct: thermal shift read by NanoGlo luminescence
Procedure: Biological Example 2: Cellular Thermal Shift Assay to Measure Compound Affinity for ^nLucOGG1 in HeLa Cells (CETSA DTm)
Cell Culture and Transfection of Hela Cells with ^nLucOGG1: For all tests, Hela cells were maintained in growth medium, Dulbecco's Minimum Eagle Medium (Multicell: Cat #319-005-CL) supplemented with 10% heat-inactivated fetal bovine serum (Gibco: Cat #12484-028) at 37° C. and 5% CO2 in a humidified tissue culture incubator. Transient transfections were performed using the Lonza 4-D Nucleofector X unit according to the manufacturer's protocol (Lonza Cat #V4XC-1024). Briefly, for each transfection, 1.2×10^6 cells were centrifuged at 1000 RPM for 5 minutes at room temperature before being diluted in 100 μL SE solution containing 18% v/v supplement and 1.5 μg pNF1-N-empty or pNF1-N-OGG1a vector. The total volume was transferred to a 100 μL nucleofection cuvette prior to transfer to the apparatus where HeLa cell nucleofection protocol CN-114 was executed. Following nucleofection, 500 μL complete media was added to the cells in the cuvette before transferring to a 6-well dish containing 1.5 mL of complete media. Cells were left to incubate for 48 hours before performing all cellular thermal shift experiments.
Cellular Thermal Shift Assays for Target Engagement (CETSA): Forty-eight hours following nucleofection, cells were washed once with DPBS−/−(Multicell: Cat #311-425-CL) and lifted with 0.25% Trypsin-EDTA (Multicell: Cat #325-043-CL) prior to dilution in growth medium and centrifugation at 1000 RPM for 5 minutes at room temperature. The resulting cell pellet was then resuspended in growth medium, cells were counted and the volume adjusted to 500 k cells/mL (2×).
For delta Tm determination, OGG1 inhibitor compounds were dissolved in DMSO to a final working concentration of 20 mM. Working solutions were then diluted in complete media to 20 μM or 0.1% DMSO for the vehicle control (2×). 2×OGG1 inhibitor compound solutions or 0.1% DMSO control were then pre-dispensed into MicroAmp Optical 96-well PCR reaction plates (Applied Biosystems: Cat #4346906) at 50 μL/well. Next, 50 μL or 25 k cells/well from the 2× cell suspension was added to the pre-loaded PCR plates. All plates were prepared as duplicates, covered with adhesive plate sealers (Perkin Elmer: Cat #6050185) and left to incubate at 37° C. for 60 minutes. During incubation, sufficient NanoGlo luciferase assay reagents (Promega: Cat #N1120) were left to equilibrate to room temperature in the dark. Immediately before heating the plates, the NanoGlo substrate was mixed with the NanoGlo buffer at a 1:50 ratio. The thermal cycler (Veriti 96-Well Thermal Cycler, Thermo Fisher Scientific) was allowed to reach the designated temperature prior to placement of the PCR plate into the heating block. For Tm determination experiments, duplicate plates containing a fixed concentration of test compound (10 μM final) as well as vehicle control were prepared to perform a 12-point temperature gradient spanning 37-70° C. for 3 minutes. Therefore, two thermal cycler protocols were set up covering two 6-step temperature gradients ranging from 37-52° C. and 52-70° C. Plates were then allowed to cool at room temperature for 5 minutes after the heat treatment followed by transfer of 75 μL of the reaction into a 96-well white polystyrene microplate (Corning: Cat #CLS3903) and addition of 75 μL of the prepared NanoGlo mixture. Microplates were then left to shake in the dark for 5 minutes before total luminescence was measured on a SpectraMax IX3 plate reader. The luminescence value obtained at each temperature was normalized to the luminescence obtained at 37° C. and the ratio obtained was plotted against the temperature. A Boltzman Sigmoidal non-linear regression was applied to the resulting data to determine Tm values and the difference between the Tm value for a given OGG1 inhibitor relative to the DMSO vehicle control was the delta Tm.

[2] = molecular target: T2, hOGG1 (Homo sapiens, UniProt O15527); experiment: Surface Plasma Resonance with hOGG1 to measure compound affinity (OGG1 SPR Kd); assay type: binding; design: Protein His-hOGG1 (12-323) was prepared; details: Biacore T-200, immobilized his-tagged OGG1; pH 7.4; 2% DMSO; single-cycle kinetics
Procedure: Surface Plasma Resonance with hOGG1 to Measure Compound Affinity (OGG1 SPR Kd); All the SPR studies were performed on a Biacore T-200 instrument (Cytiva life sciences) using series S NTA sensor chip (cat #BR-1005-32, Cytiva life sciences). Recombinant his-tagged OGG1 (mol. wt. 36003; ChemPartner, Shanghai, China) was immobilized on NTA sensor chip via Ni^2+/NTA chelation using NTA reagent kit (Cytiva life sciences; cat #289950) as per manufacturer's recommended protocol. The running buffer during immobilization contained HEPES (20 mM, pH 7.4), 150 mM NaCl, 0.5 mM TCEP (tris(2-carboxyethyl)phosphine), and 0.005% Tween-20. NTA sensor chip (experimental cell) was first conditioned by injecting regeneration solution (350 mM EDTA, flow rate 30 μL/min, 2 injections 60 each). Additional wash with 50 mM NaOH was used whenever the chip was regenerated (flow rate 30 μL/min, 1 injection of 60 s). The sensor chip was then activated with 0.5 mM NiCl2 (flow rate 10 μL/min, 2 injection of 60 s, leading to a baseline increase of ~40 RU), and the excess Ni^2+ was removed using immobilization buffer containing 3 mM EDTA (flow rate 10 μL/min, 1 injection of 60 s). Finally, OGG1 (diluted to 6.2 μg/mL in running buffer) was injected on the activated sensor chip at a flow rate of 10 μL/min until immobilization level reached ~6000 RU. Any loosely bound protein was removed by passing the immobilization buffer overnight at 20 μL/min. At this point, the drift in baseline was ~0.01 RU/s and the final immobilization level was ~2500 RU. Reference cell was left untreated. SPR binding experiments were performed using binding buffer (20 mM HEPES (pH 7.4), 150 mM NaCl, 0.5 mM TCEP, 0.005% Tween-20, and 2% DMSO) at a flow rate of 30 μL/min. Single-cycle kinetics approach was used for binding analysis which consisted of sequential injections of increasing concentrations of test compound (a 3-fold serial dilution with 5 concentrations; highest 750 or 1500 nM; with final DMSO concentration at 2%) over the immobilized protein without regeneration step between each sample injection. Each injection was 45 seconds long (contact time), followed by a final dissociation of 600 sec. The Biacore T-200 Evaluation software 3.1 (GE Healthcare) was used to determine kinetic parameters from SPR data. All the reported sensograms were reference subtracted and corrected for refractive index contributions from solvent using 8-point solvent correction (1.4 to 2.8% DMSO in binding buffer). Data were fit to both steady state and 1:1 kinetic model to obtain Kon, Koff and binding affinity (Kd).

[3] = molecular target: T2, hOGG1; experiment: Biochemical fluorescence assay to measure enzymatic activity of hOGG1 (OGG1/APEX IC50); design: Protein His-hOGG1 (12-323) was prepared; His (N); host or cells: E. coli; details: 1 nM OGG1+2 nM APEX+6 nM dsDNA (8-oxo-dG substrate); pH 7.5; RT 40 min; read-out: OGG1/APEX IC50
Method in brief: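 Coupled glycosylase/AP-endonuclease read-out: 8-oxo-dG-containing dsDNA (6 nM) cleaved by 1 nM His-hOGG1 (12-323) plus 2 nM APEX1 over 40 min at room temperature, after 20 min enzyme–compound preincubation; buffer 20 mM Tris pH 7.5, 100 mM KCl, 0.1% BSA, 0.01% Tween. IC50 comes from sigmoidal 3-parameter fitting of % inhibition derived from TAMRA signal.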

T1 sequence (O15527 whole entry): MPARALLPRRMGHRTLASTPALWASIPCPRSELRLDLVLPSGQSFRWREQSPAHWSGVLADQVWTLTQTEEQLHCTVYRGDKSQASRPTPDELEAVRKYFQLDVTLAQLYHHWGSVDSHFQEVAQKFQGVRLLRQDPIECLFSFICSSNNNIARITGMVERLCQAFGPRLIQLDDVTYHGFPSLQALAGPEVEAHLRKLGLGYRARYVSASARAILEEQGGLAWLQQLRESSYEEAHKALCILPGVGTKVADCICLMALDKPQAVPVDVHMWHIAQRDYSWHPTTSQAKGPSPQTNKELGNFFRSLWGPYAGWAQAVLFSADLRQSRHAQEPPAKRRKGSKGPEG
T2 sequence (O15527 12-323): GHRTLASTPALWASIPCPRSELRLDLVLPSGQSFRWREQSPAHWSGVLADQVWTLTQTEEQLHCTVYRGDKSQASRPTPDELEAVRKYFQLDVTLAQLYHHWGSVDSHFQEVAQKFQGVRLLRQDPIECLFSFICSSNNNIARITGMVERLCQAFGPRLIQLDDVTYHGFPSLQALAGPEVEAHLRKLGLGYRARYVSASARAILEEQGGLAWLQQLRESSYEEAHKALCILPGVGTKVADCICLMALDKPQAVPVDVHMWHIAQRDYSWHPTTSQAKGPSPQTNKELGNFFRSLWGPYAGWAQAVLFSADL

COc1cc(NC(=O)[C@]2(C)CC[C@@H](N3Cc4c(C)ccc(OC)c4NC3=O)CC2)ccc1C [Example 12, (1r,4r)-N-(3-Methoxy-4-methylphenyl)-4-(8-methoxy-5-methyl-2-oxo-1,2-dihydroquinazolin-3(4H)-yl)-1-methylcyclohexanecarboxamide]
ΔTm at 10 µM [1]: ≤ 6 °C
Kd [2]: > 1000 nM

COc1ccc(NC(=O)[C@]2(C)CC[C@@H](N3Cc4c(C)ccc(OC)c4NC3=O)CC2)cc1C (single isomer, unassigned) [Example 10, (1r,4r)-N-(3-methyl-4-methoxyphenyl)-4-(8-methoxy-5-methyl-2-oxo-1,2-dihydroquinazolin-3(4H)-yl)-1-methylcyclohexanecarboxamide]
ΔTm at 10 µM [1]: ≤ 6 °C
Kd [2]: > 1000 nM

Cc1cc(NCCN(C)C)cc2c1CN([C@H]1CC[C@@H](C(=O)Nc3cc4ccccc4[nH]3)CC1)C2=O [Example 271, (1s,4s)-4-(6-(2-(dimethylamino)ethylamino)-4-methyl-1-oxoisoindolin-2-yl)-N-(1H-indol-2-yl)cyclohexanecarboxamide]
IC50 [3]: < 100 nM
Kd [2]: 10 to 100 nM

COc1ccc(NC(=O)[C@]2(C)CC[C@@H](N3Cc4c(C)ccc(OC)c4NC3=O)CC2)cc1Cl (single isomer, unassigned) [Example 6, (1r,4r)-N-(3-Chloro-4-methoxyphenyl)-4-(8-methoxy-5-methyl-2-oxo-1,2-dihydroquinazolin-3(4H)-yl)-1-methylcyclohexanecarboxamide]
ΔTm at 10 µM [1]: ≤ 6 °C
Kd [2]: > 1000 nM

COc1ccc(NC(=O)[C@]2(C)CC[C@@H](N3Cc4c(C)ccc(OC)c4NC3=O)CC2)cc1C#N (single isomer, unassigned) [Example 8, (1r,4r)-N-(3-cyano-4-methoxyphenyl)-4-(8-methoxy-5-methyl-2-oxo-1,2-dihydroquinazolin-3(4H)-yl)-1-methylcyclohexanecarboxamide]
ΔTm at 10 µM [1]: ≤ 6 °C
Kd [2]: > 1000 nM

Cc1cc(NCCN(C)C)cc2c1CN([C@H]1CC[C@@H](C(=O)Nc3cc4ccccc4[nH]3)CC1)C2=O [Example 132, (1s,4s)-4-(6-((2-(Dimethylamino)ethyl)amino)-4-methyl-1-oxoisoindolin-2-yl)-N-(1H-indol-2-yl)cyclohexane-1-carboxamide]
ΔTm at 10 µM [1]: > 10 °C
